These are literature values, as cited in US5631296A, “Drugs containing S(+)-ibuprofen” (priority 1992, dated 1997).

Each structure is given as a SMILES string.

The subject of one series is serum proteins. The note with it: stereoselective.
A further series relates to humans. The conditions noted are these: U.S. Pat. No. 4,851,444.
A further series relates to skin inflammation. The conditions noted are these: healthy test subjects, relative to racemate.
For a further series, the system named is arthritic patients. The note with it: daily dose well below the conventional racemate dosage.
The conditions of series [1]: comparatively low dosage.
For series [2], the system named is cyclooxygenase subunit of the enzyme prostaglandin synthease.

As to `CC(C)Cc1ccc(C(C)C(=O)O)cc1` (racemic) [racemate, 2-(4-isobutylphenyl)propionic acid], the “toxic effects directly attributable to accumulation of R(-) in fatty tissue” value (chronic administration of the racemate) is recorded as “no toxic effects have so far been observed”. Also, where the note is “in vivo”, the “accumulation of the R(-) enantiomer in the fatty tissue” value is listed as “leads to an accumulation of the R(-) enantiomer in the fatty tissue”.

On to `CC(C)Cc1ccc([C@@H](C)C(=O)O)cc1` [R(-)-ibuprofen], for which the “binding to the serum proteins” value in the series on serum proteins was “competing for the binding site”.

In the case of `CC(C)Cc1ccc([C@H](C)C(=O)O)cc1` [S(+)-ibuprofen], in the series on serum proteins, the “binding to the serum proteins” value is “competing for the binding site”. Besides, the “onset and intensity of analgesic effect versus identical amounts of the racemate” value in the series with humans is “starts more rapidly and is more intense”. In addition, the “dose-effect curve in skin inflammation model” value in the series on skin inflammation is reported as “shifted towards lower dosage relative to that of the racemate”. Also, the “therapeutic effect in arthritic patients” value with arthritic patients was “good therapeutic effect”. Also, in series [1], the “therapeutic action relative to the racemate” value is listed as “the same therapeutic action as the racemate”. Further, the analgesic action result in the series on rhesus monkeys is recorded as “stronger analgesic action”. For the same compound, in series [2], the “inhibition of prostaglandin synthesis (mechanism of action found in vitro)” value is on record as “found in vitro only for the S(+) enantiomer”.
